Data as given in EPA's ToxValDB 9.5.

Legend:
Oryctolagus sp. = conditions: reproduction developmental; duration: 13 days; oral; F; New Zealand
Rattus norvegicus = conditions: oral
[1] = developmental, duration: 5 days, oral, F, Developmental: Delay in vaginal opening at 5 mg/kg and mammary gland growth stimulation a 5 mg/kg and inhibition at 10 mg/kg
[2] = developmental, duration: 7 days, oral, F, Kunming, Developmental: Increased resorbed embryos at 10 mg/kg/day in GD 13 group
[3] = developmental, duration: 17 days, oral, F, C57BL/6, Developmental: Developmental delays in the mammary glands on PNDs 21 (38%) and 61 (25%)
[4] = developmental, duration: 17 days, oral, F, CD1, Developmental: Increased ambulatory activity and decreased methamphetamineinduced activity
[5] = developmental, duration: 17 days, oral, F, Developmental: Decrease in number of successful births
[6] = developmental, duration: 17 days, oral, F, Hepatic: Centrilobular hepatocyte hypertrophy and bile duct hyperplasia at 3 mg/kg/day
[7] = reproduction developmental, duration: 17 days, oral, F, CD1, Hepatic: Increase in severity of chronic inflammation at ?1 mg/kg/day / Ito cell hypertrophy and centrilobular hepatocellular hypertrophy …
[8] = short-term, duration: 4 days, dermal, F, BALB/c, Hepatic: 52% increase in absolute liver weight
[9] = short-term, duration: 4 days, dermal, F, BALB/c, Immunotoxicological: Increased serum IgE following ovalbumin challenge
[10] = short-term, duration: 5 days, oral, F, BALB/c, Body Weight: 13% decrease in body weight gain
[11] = short-term, duration: 5 days, oral, F, Body Weight: 10% decrease in body weight gain
[12] = short-term, duration: 10 days, oral, F, Immunotoxicological: Altered response to sRBC

## O=C(O)C(F)(F)C(F)(F)C(F)(F)C(F)(F)C(F)(F)C(F)(F)C(F)(F)F [Perfluorooctanoic acid]
Mus musculus; developmental, duration: 5 days, oral, F, BALB/c, Developmental: Delay in vaginal opening at 1 mg/kg and mammary gland growth inhibition at 5 and 10 mg/kg
  LOAEL: 1 mg/kg-day
Mus musculus; [1]
  LOAEL: 5 mg/kg-day
  NOAEL: 1 mg/kg-day
Mus musculus; developmental, duration: 5 days, oral, F, Developmental: Mammary gland growth stimulation
  LOAEL: 5 mg/kg-day
Mus musculus; [2]
  LOAEL: 10 mg/kg-day
  NOAEL: 5 mg/kg-day
Mus musculus; developmental, duration: 15 days, oral, F, C57BL/6, Developmental: Increased horizontal and ambulatory locomotor activity and decreased resting time in males / decrease in novel object …
  LOAEL: 0.1 mg/kg-day
Mus musculus; [3]
  LOAEL: 0.3 mg/kg-day
  NOAEL: 0.1 mg/kg-day
Mus musculus; developmental, duration: 17 days, oral, F, CD1, Developmental: Developmental delays in mammary gland development
  LOAEL: 0.01 mg/kg-day
Mus musculus; developmental, duration: 17 days, oral, F, CD1, Developmental: Developmental delays in the mammary glands on PNDs 35 (26%) and 56 (30%)
  LOAEL: 0.01 mg/kg-day
Mus musculus; developmental, duration: 17 days, oral, F, CD1, Developmental: Impaired development of mammary glands in offspring
  LOAEL: 0.3 mg/kg-day
Mus musculus; [4]
  LOAEL: 1 mg/kg-day
  NOAEL: 0.3 mg/kg-day
Mus musculus; developmental, duration: 17 days, oral, F, Developmental: 31.5% reduced pups per litter on PND 20
  LOAEL: 3 mg/kg-day
Mus musculus; [5]
  LOAEL: 3 mg/kg-day
  NOAEL: 0.1 mg/kg-day
Mus musculus; developmental, duration: 17 days, oral, F, Hepatic: 28% increased liver weight, hepatocellular hypertrophy with increased peroxisomes
  NOAEL: 3 mg/kg-day
Mus musculus; [6]
  LOAEL: 3 mg/kg-day
  NOAEL: 1 mg/kg-day
Mus musculus; developmental, duration: 18 days, oral, F, ICR, Developmental: 14% increased neonatal mortality, 9.5% reduced fetal body weight
  LOAEL: 5 mg/kg-day
Mus musculus; developmental, duration: 18 days, oral, F, ICR, Developmental: 14% increased neonatal mortality, 9.5% reduced fetal body weight + Hepatic: 35% increased maternal relative liver weight with…
  NOAEL: 1 mg/kg-day
Mus musculus; developmental, duration: 20 days, oral, diet, M/F, C57BL/6, developmental
  LOAEL: 8.29 mg/L
Mus musculus; developmental, duration: 21 days, oral, F, C57BL/6, Developmental: Altered femur and tibial bone morphology, decreased tibial mineral density
  LOAEL: 0.3 mg/kg-day
Mus musculus; developmental, duration: 21 days, oral, M/F, Developmental: Altered exploratory behavior in adult offspring (increased in males and decreased in females) / increased global activity in…
  LOAEL: 0.3 mg/kg-day
Mus musculus; reproduction developmental, duration: 7 days, oral, F, Kunming, Reproductive: Decreases in progesterone levels at ?5 mg/kg in GD 13 group / increased serum estradiol level at 10 mg/kg/day on GD 7 / …
  LOAEL: 2.5 mg/kg-day
Mus musculus; [7]
  LOAEL: 1 mg/kg-day
  NOAEL: 0.3 mg/kg-day
Mus musculus; reproduction developmental, duration: 17 days, oral, F, Hepatic: Increased severity of centrilobular hepatocyte hypertrophy at ?0.3 mg/kg/day
  NOAEL: 1 mg/kg-day
Mus musculus; reproduction developmental, duration: 17 days, oral, M/F, CD1, Hepatic: Increased severity of hepatocellular hypertrophy at PND 91 and periportal inflammation on PND 21 at ?0.01 mg/kg/day (incidence was …
  LOAEL: 0.01 mg/kg-day
Mus musculus; reproduction developmental, duration: 18 days, oral, F, ICR, Hepatic: 35% increased maternal relative liver weight with hepatocellular hypertrophy at ?1 mg/kg/day / single cell necrosis and mild …
  LOAEL: 10 mg/kg-day
Mus musculus; short-term, duration: 3 weeks, oral, M, Hepatic: Hepatocellular hypertrophy and degeneration
  LOAEL: 5 mg/kg-day
Mus musculus; short-term, duration: 4 days, dermal, F, BALB/c
  NOAEL: 50 mg/kg-day
Mus musculus; [8]
  LOAEL: 6.25 mg/kg-day
  NOAEL: 2.5 mg/kg-day
Mus musculus; [9]
  LOAEL: 18.8 mg/kg-day
  NOAEL: 12.5 mg/kg-day
Mus musculus; [10]
  LOAEL: 10 mg/kg-day
  NOAEL: 5 mg/kg-day
Mus musculus; short-term, duration: 5 days, oral, F, BALB/c, Hepatic: Increases in liver weight and hepatocellular hypertrophy at ?1 mg/kg
  NOAEL: 10 mg/kg-day
Mus musculus; [11]
  LOAEL: 10 mg/kg-day
  NOAEL: 5 mg/kg-day
Mus musculus; short-term, duration: 5 days, oral, F, C57BL/6, Reproductive: Increased progesterone levels
  LOAEL: 5 mg/kg-day
Mus musculus; short-term, duration: 5 days, oral, F, Hepatic: Increases in liver weight and hepatocellular hypertrophy at ?1 mg/kg
  NOAEL: 10 mg/kg-day
Mus musculus; short-term, duration: 7 days, oral, F, BALB/c, Body Weight: 36% decrease in body weight gain + Immunotoxicological: Inhibition of T-and B-lymphocyte proliferation in response to sRBC / …
  LOAEL: 20 mg/kg-day
Mus musculus; short-term, duration: 7 days, oral, F, BALB/c, Hepatic: 32% increase in relative liver weight
  NOAEL: 20 mg/kg-day
Mus musculus; short-term, duration: 7 days, oral, M, Body Weight: 14% decreased mean body weight + Immunotoxicological: 40% reduction in spleen weight and 79% reduction in thymus weight
  LOAEL: 33 mg/kg-day
Mus musculus; short-term, duration: 7 days, oral, M, Body Weight: >10% reduced final body weight
  LOAEL: 24 mg/kg-day
Mus musculus; short-term, duration: 7 days, oral, M, Hepatic: 2-fold increase in absolute liver weight
  NOAEL: 24 mg/kg-day
Mus musculus; short-term, duration: 7 days, oral, M, Hepatic: 86% increase in absolute liver weight
  NOAEL: 33 mg/kg-day
Mus musculus; short-term, duration: 7 days, oral, M, Hepatic: Hepatocellular hypertrophy, steatosis, and increased hepatic triglyceride levels
  NOAEL: 10 mg/kg-day
Mus musculus; short-term, duration: 7 days, oral, M, Immunotoxicological: Decreased humoral response to immunization with horse red blood cells
  LOAEL: 24 mg/kg-day
Mus musculus; [12]
  LOAEL: 15 mg/kg-day
  NOAEL: 7.5 mg/kg-day
Mus musculus; short-term, duration: 10 days, oral, M, Body Weight: 17% decrease in final body weight
  LOAEL: 30 mg/kg-day
Mus musculus; short-term, duration: 10 days, oral, M, Body Weight: 25% body weight loss after 5 days of treatment
  LOAEL: 78 mg/kg-day
Mus musculus; short-term, duration: 10 days, oral, M, Body Weight: 25% body weight loss after 10 days of treatment
  LOAEL: 78 mg/kg-day
Mus musculus; short-term, duration: 10 days, oral, M, C57BL/6, Hepatic: 68% increase in liver weight, hepatocellular hypertrophy, and decreased serum cholesterol levels
  NOAEL: 2 mg/kg-day
Mus musculus; short-term, duration: 10 days, oral, M, Hepatic: 35% increase in absolute liver weight at ?1 mg/kg/day
  NOAEL: 1 mg/kg-day
Mus musculus; short-term, duration: 10 days, oral, M, Hepatic: 74% increase in absolute liver weight at ?78 mg/kg/day
  NOAEL: 390 mg/kg-day
Mus musculus; short-term, duration: 10 days, oral, M, Hepatic: 74% increase in absolute liver weight in 5 days at ?78 mg/kg/day
  NOAEL: 390 mg/kg-day
Mus musculus; short-term, duration: 10 days, oral, M, Hepatic: >90% increase in absolute and relative liver weight
  NOAEL: 30 mg/kg-day
Mus musculus; short-term, duration: 10 days, oral, M, Immunotoxicological: 40-50% decrease in spleen and thymus weights
  LOAEL: 11.5 mg/kg-day
Mus musculus; short-term, duration: 10 days, oral, M, Immunotoxicological: 86% reduction in absolute thymus weight / 30% reduction in absolute spleen weight
  LOAEL: 30 mg/kg-day
Mus musculus; short-term, duration: 15 days, oral, F
  NOAEL: 7.5 mg/kg-day
Mus musculus; short-term, duration: 15 days, oral, F, Body Weight: 14-20% decrease in body weight in wild-type mice
  LOAEL: 30 mg/kg-day
Mus musculus; short-term, duration: 21 days, oral, M, ICR, Immunotoxicological: Marked hyperplasia in spleen white pulp and thymic atrophy
  LOAEL: 47.2 mg/kg-day
Mus musculus; subchronic, duration: 6 weeks, oral, M/F, BALB/c, Hepatic: 54-65% increase in relative liver weight / 20% increase in plasma cholesterol in males
  NOAEL: 0.55 mg/kg-day
Mus musculus; subchronic, duration: 6 weeks, oral, M/F, C57BL/6, Hepatic: 66-67% increase in relative liver weight in males / increased plasma cholesterol levels in males (35%) and females (70%)
  NOAEL: 0.55 mg/kg-day
Oryctolagus sp.
  NOAEL: 50 mg/kg-day
Rattus norvegicus; acute, duration: 1 days, M, Wistar, Neurological: No alteration in performance on novel object recognition test
  NOAEL: 50 mg/kg-day
Rattus norvegicus; developmental, duration: 21 days, F, Wistar, Developmental: 17-18% reduced motor coordination and increased locomotor activity in pups on PNDs 34-35
  LOAEL: 1.6 mg/kg-day
Rattus norvegicus; short-term, duration: 1 weeks, M, Wistar
  NOAEL: 38 mg/kg-day
Rattus norvegicus; short-term, duration: 1 weeks, M, Wistar, Hepatic: Significant increase in absolute and relative liver weight at ?4.7 mg/kg/day
  NOAEL: 9.5 mg/kg-day
Rattus norvegicus; short-term, duration: 14 days, M, Sprague-Dawley, Hepatic: 45% increase in relative liver weight
  NOAEL: 20 mg/kg-day
Rattus norvegicus; short-term, duration: 28 days, M, Sprague-Dawley, Neurological: Cachexia and lethargy
  LOAEL: 5 mg/kg-day
